Values of other authors, collected in publication PMC8621674, “Formulation and In Vivo Evaluation of a Solid Self-Emulsifying Drug Delivery System Using Oily Liquid Tocotrienols as Model Active Substance” (Pharmaceutics, 2021).

Settings: no reference given

HLB value	Substance
12	caprylocaproyl macrogol-8 glycerides [Labrasol®]
29	poloxamer 188
